# Reference: paper PMC9320114 (Molecules, 2022)
# Where two headings read alike, the source gives them in different places.
# Key:
# [1] = molecular target: human butyrylcholinesterase (hBChE) (Homo sapiens, UniProt P06276); test: biochemical; format: biochemical; settings: for IC50: read-out: hBChE IC50; for remaining activity at 10 µM: read-out: hBChE RA (%)
# Description: (§1) Enzyme solutions were prepared by diluting the concentrated enzyme stock solutions (4.6 mg/mL in 10 mM MES-NaOH buffer, pH 6.5) in a sodium phosphate-buffered solution (0.1 M, pH 8.0). […] The final organic solvent (DMSO) content was always 1% (v/v). Reactions were initiated by adding the substrate to the enzyme and inhibitor, which were preincubated for 5 min. […] To determine the blank value (b), the enzyme solution was replaced by a phosphate-buffered solution. The initial velocity (v) was calculated from the slope of the linear trend obtained, with each measurement performed in triplicate. The inhibitory potencies were expressed as RA=(vi − b)/(vo − b), where vi is the velocity in the presence of the test compounds and vo is the control velocity in the presence of DMSO. Seven different concentrations of each compound were used for the IC50 measurements. IC50 values were obtained by plotting the residual enzyme activities against the applied inhibitor concentrations, fitting the experimental data to the 4-parameter Hill equation:(1) Y=Bottom+(Top−Bottom)/1+10^((LogIC50−X)×Hill Slope) where X is the logarithm of the inhibitor concentration, and Y is the residual activity. GraphPad Prism 8.2.0 (GraphPad Software, San Diego, CA, USA) was used for the fitting procedure.
# [2] = molecular target: T1, murine acetylcholinesterase (mAChE) (Mus musculus, UniProt P21836); test: biochemical; format: biochemical; settings: for remaining activity at 10 µM: residual activity at 10 µM, read-out: mAChE RA (%)
# T1 sequence (P21836 32-614): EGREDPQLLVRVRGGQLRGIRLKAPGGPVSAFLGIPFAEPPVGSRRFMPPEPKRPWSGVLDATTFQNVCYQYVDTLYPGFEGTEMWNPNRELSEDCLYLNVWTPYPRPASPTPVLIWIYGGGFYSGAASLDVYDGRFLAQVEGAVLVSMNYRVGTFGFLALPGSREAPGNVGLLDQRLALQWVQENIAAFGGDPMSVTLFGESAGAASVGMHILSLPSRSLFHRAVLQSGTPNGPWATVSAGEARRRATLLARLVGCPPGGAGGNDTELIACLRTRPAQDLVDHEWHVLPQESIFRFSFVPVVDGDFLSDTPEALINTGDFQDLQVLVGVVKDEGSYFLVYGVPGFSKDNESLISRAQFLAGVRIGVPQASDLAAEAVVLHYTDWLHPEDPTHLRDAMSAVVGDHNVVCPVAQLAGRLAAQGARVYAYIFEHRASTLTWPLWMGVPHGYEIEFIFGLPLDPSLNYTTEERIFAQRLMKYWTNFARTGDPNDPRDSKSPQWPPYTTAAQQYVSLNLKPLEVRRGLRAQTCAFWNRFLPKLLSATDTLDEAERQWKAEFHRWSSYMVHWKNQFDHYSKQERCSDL
# Description: as §1
# MurA = MurA (Escherichia coli, UniProt P0A749); test: Inhibition of MurA, colorimetric malachite green method; format: biochemical, bacterial; settings: Table 1; for IC50: read-out: MurA IC50; for MurA RA (%): residual activity at 100 µM
# Description: Inhibition of Mur enzymes was monitored with the colorimetric malachite green method, which measured orthophosphate formed during reaction. The mixtures with a final volume of 50 µL contained:
# MurA: 50 mM HEPES-NaOH, pH 7.8, 0.005% Triton X-114, 200 µM uridine-diphosphate-N-acetylglucosamine, 100 µM phosphoenolpyruvate, purified MurA, and 50 or 100 µM of each compound tested.
# All compounds were soluble in the assay mixtures containing 5% DMSO (v/v). After incubation for 15 min (20 min for DdlB) at 37 °C, the enzyme reaction was terminated by addition of Biomol® reagent (100 µL) and absorbance was measured after 5 min at 650 nm (Synergy™ H4 microplate reader; BioTek Instruments, Inc., BioTek Gen5 Data Analysis Software, version 2.9, Santa Clara, CA, USA). All experiments were performed in duplicate.
# hMAO-B = molecular target: T2, hMAO-B (Homo sapiens, UniProt P27338); test: biochemical; settings: residual activity at 10 µM; Table 3
# T2 construct: purchased Sigma Aldrich; host or cells: BTI-TN-5B1-4 baculovirus-infected insect cells
# T2 sequence (P27338 1-520): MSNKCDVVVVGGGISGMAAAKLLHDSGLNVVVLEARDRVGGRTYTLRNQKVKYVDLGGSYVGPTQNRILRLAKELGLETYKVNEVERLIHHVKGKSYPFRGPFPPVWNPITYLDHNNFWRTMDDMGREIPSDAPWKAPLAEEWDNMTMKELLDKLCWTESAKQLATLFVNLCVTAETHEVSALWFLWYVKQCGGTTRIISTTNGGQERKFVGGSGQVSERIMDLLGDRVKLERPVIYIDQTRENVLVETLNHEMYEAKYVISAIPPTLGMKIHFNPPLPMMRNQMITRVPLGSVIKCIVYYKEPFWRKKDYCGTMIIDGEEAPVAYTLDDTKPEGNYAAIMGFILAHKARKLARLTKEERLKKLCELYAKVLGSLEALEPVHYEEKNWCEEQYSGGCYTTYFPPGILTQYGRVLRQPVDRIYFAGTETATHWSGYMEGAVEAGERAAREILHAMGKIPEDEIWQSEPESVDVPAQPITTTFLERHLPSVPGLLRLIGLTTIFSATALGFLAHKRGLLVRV
# Source text: The effects of the compounds on hMAO-A and hMAO-B were investigated using a fluorimetric assay, following a method previously described in the literature. Recombinant human microsomal hMAO enzymes expressed in BTI-TN-5B1-4 baculovirus-infected insect cells, horseradish peroxidase (HRP, type II, lyophilized powder), and p-tyramine hydrochloride were purchased from Sigma Aldrich. 10-Acetyl-3,7-dihydroxyphenoxazine (Amplex Red reagent) was synthesized as described in the literature.
# After preincubation, the reaction was started by adding final concentrations of 200 µM Amplex Red reagent, 2 U/mL HRP, and 1 mM p-tyramine hydrochloride. Resorufin production was quantified based on the fluorescence produced (λex = 530 nm; λem = 590 nm) at 37 °C over a 20 min period. For the control experiments, DMSO was used instead of appropriate dilutions of the compounds in DMSO. For the determination of blank (b), the enzyme solution was replaced by a phosphate-buffered solution. Initial velocities were calculated from the obtained trend, with each measurement performed in duplicate. Specific fluorescence emission to determine the final results was calculated after subtracting the blank activity (b). Inhibitory potencies were expressed as RAs, and IC50 values were calculated as described in the section “Inhibition of hBChE and mAChE” above.
# [3] = residual activity at 10 µM, Table 4
# MurA, sequence (P0A749 whole entry): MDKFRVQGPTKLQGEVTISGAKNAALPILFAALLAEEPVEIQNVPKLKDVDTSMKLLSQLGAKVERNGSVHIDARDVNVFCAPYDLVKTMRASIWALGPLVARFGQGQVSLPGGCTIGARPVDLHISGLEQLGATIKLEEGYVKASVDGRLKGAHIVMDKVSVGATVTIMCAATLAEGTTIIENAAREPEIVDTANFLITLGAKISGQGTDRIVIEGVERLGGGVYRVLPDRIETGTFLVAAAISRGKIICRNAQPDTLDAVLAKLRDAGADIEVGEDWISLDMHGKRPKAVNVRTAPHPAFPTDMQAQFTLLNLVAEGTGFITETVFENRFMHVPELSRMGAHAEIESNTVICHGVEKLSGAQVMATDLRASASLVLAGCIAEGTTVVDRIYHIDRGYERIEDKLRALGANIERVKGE
# human butyrylcholinesterase (hBChE), sequence (P06276 29-602): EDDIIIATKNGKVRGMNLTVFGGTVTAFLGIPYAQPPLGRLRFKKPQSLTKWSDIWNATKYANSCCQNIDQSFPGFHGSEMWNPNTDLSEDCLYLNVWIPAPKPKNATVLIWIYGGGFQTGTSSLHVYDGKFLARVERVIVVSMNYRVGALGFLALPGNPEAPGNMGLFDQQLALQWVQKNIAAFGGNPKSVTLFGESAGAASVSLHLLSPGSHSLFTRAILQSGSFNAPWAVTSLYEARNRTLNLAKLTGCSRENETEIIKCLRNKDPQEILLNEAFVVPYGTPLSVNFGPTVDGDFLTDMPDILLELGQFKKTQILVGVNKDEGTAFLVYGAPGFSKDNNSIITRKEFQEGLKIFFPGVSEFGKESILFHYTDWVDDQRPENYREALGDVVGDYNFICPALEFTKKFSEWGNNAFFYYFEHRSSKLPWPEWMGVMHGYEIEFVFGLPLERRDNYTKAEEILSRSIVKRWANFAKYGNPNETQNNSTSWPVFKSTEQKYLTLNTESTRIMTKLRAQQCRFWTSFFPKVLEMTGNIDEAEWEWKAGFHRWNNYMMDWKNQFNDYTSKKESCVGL
Compound,"IC50 ([1]; Table 4, IC50 ± SEM) [nM]","remaining activity at 10 µM [1, 3] [%]",remaining activity at 10 µM ([2]; Table 4) [%],hBChE RA (%) [1] [%],MurA RA (%) (MurA),mAChE RA (%) [2] [%],other results
CC(C)c1ccc2[nH]cc(CCCCN3CC=C(c4ccccc4)CC3)c2c1 [Compound 31],59.9 ± 5.5,0,44,–,–,–,"IC50 ([2]; Table 4, IC50 ± SEM): 14000 ± 4000 nM"
COC(=O)c1cc(N(Cc2ccc(C#Cc3ccc(C(C)(C)C)cc3)cc2)CC2CC2)ccc1F [Compound 9],–,–,–,80,10,–,IC50 [2]: 1800 ± 450 nM; IC50 (MurA; IC50 ± SEM): 91000 ± 13000 nM
OCC1=C(c2ccc(F)cc2)CCN(CCCCc2c[nH]c3ccccc23)C1 [Compound 34],493 ± 88,7,31,–,–,–,"IC50 ([2]; Table 4, IC50 ± SEM): 7000 ± 1000 nM"
CC(C)(C)CCN(Cc1ccc(C#Cc2ccc(F)cc2)cc1)C(=O)c1ccc(O)c(C(=O)O)c1 [Compound 6],–,–,–,95,0,13,IC50 [2]: 4800 ± 1300 nM; IC50 (MurA; IC50 ± SEM): 27000 ± 7000 nM
Fc1ccc2[nH]cc(CCCCN3CC=C(c4ccccc4)CC3)c2c1 [Compound 39],70 ± 5,0,47,–,–,–,"IC50 ([2]; Table 4, IC50 ± SEM): 15000 ± 5000 nM"
"C[C@@H]1O[C@@H]1P(=O)(O)O [Fosfomycin, reference compound]",–,–,–,–,0,–,IC50 (MurA; IC50 ± SEM): 240 ± 20 nM
CCCCCCN(Cc1ccc(C#Cc2ccc(CCCC)cc2)cc1)c1ccc(F)c(C(=O)OC)c1 [Compound 7],–,–,–,45,100,19,IC50 [1]: ~19700 nM; IC50 [2]: 682 ± 86 nM
Oc1ccc2c(CCCCN3CC=C(c4ccccc4)CC3)c[nH]c2c1 [Compound 33],267 ± 1,3,61,–,–,–,–
O=C(O)c1cccc2[nH]cc(CCCCN3CC=C(c4ccccc4)CC3)c12 [Compound 32],14500 ± 2200,49,71,–,–,–,–
CCCCc1ccc(C#Cc2ccc(CN(C(=O)CC(C)(C)C)c3ccc(F)c(C(=O)O)c3)cc2)cc1 [Compound 1],–,–,–,100,0,2,IC50 [2]: 1200 ± 50 nM; MurA IC50 (µM) (MurA; IC50 ± SEM): No clear dose-dependency
"Nc1c2c(nc3ccccc13)CCCC2 [Tacrine, reference compound]",–,–,–,–,–,–,"hBChE RA (%) ([1]; residual activity at 10 µM, Table 1): 0%"
CCCCc1ccc(C#Cc2ccc(CN(CC3CC3)c3ccc(O)c(C(=O)O)c3)cc2)cc1 [Compound 5],–,–,–,16,0,2,IC50 [1]: 2400 ± 200 nM; IC50 [2]: 1100 ± 100 nM; IC50 (MurA; IC50 ± SEM): 7000 ± 3000 nM
CC(C)(C)c1ccc(C#Cc2ccc(CN(CC3CC3)c3ccc(O)c(C(=O)O)c3)cc2)cc1 [Compound 2],–,–,–,100,64,99,–
C1=C(c2cccc3ccccc23)CCN(CCCCc2c[nH]c3ccccc23)C1 [Compound 30],400 ± 57,6,76,–,–,–,–
COc1ccc2[nH]cc(CCCCN3CCc4c([nH]c5ccc(OC)cc45)C3)c2c1 [Compound 37],2300 ± 100,23,88,–,–,–,–
O=C(O)c1ccc2[nH]cc(CCCCN3CCc4c(c(=O)oc5ccccc45)C3)c2c1 [Compound 36],–,97,78,–,–,–,–
COC(=O)CNC(=O)c1ccc2[nH]cc(CCCCN3CC=C(c4ccccc4)CC3)c2c1 [Compound 38],319 ± 51,4,100,–,–,–,–
N#Cc1ccc2[nH]cc(CCCCN3CC=C(c4ccc5c(c4)OCC5)CC3)c2c1 [Compound 35],2900 ± 100,31,59,–,–,–,–
CC(C)(C)CCN(Cc1ccc(C#Cc2ccc(F)cc2)cc1)C(=O)c1ccc(C(=O)O)cc1 [Compound 3],–,–,–,100,58,100,–
Cc1ccc(C#Cc2ccc(CN(CCC(C)(C)C)c3ccc(O)c(C(=O)O)c3)cc2)cc1 [Compound 4],–,–,–,100,14,100,IC50 (MurA; IC50 ± SEM): 102000 ± 15000 nM
"C[C@H](NCc1ccc(OCc2cccc(F)c2)cc1)C(N)=O [Safinamide, reference compound]",–,–,–,–,–,–,hMAO-B RA [%] (hMAO-B): 0%
CCCCCCN(Cc1ccc(C#Cc2ccc(C(C)(C)C)cc2)cc1)c1ccc(F)c(C(=O)O)c1 [Compound 8],–,–,–,71,0,22,IC50 [2]: 368 ± 52 nM; IC50 (MurA; IC50 ± SEM): 14000 ± 5000 nM
